The source of these data is US20220133783A1 (priority 2020, published 2022).

“And” between values parts separate entries of the source, which are not always exact repeats. Equal values may be shown once.

In one data set the test system is virus. Particulars: cited from earlier work.
For data set [1], the system named is VSV pseudo typed with SARS-CoV2 Spike protein (rVSG-dG 2019-CoV-2-18AA S). It is filed as cell-based.
Another data set deals with Human coronavirus 229E. It is filed as cell-based. Particulars: 10 min pre-treatment with 10 μg/mL.

For “ethyl-N-alpha-lauroyl-L-arginate HCl [ELAH]”, the “reported effect by itself on virus inhibition (antiviral concentration)” value with virus is 300 µg/mL. Besides, the “FIC of the single agent within the combination” value in data set [1] was 0.10. Besides, in the data set on MRC-5 cells, the cytotoxicity entry was “non-cytotoxic”. The “human coronavirus 229E binding and replication in the MRC-5 cell line” value in the data set with Human coronavirus 229E (SEM) is given as “inhibited”. In addition, the “viral entry and cytopathic effects caused by the virus” value in the data set on Human coronavirus 229E (after 48 hours of incubation, compared to controls) is listed as “reduces”.
Take copper: in the data set on virus, the “reported effect by itself on virus inhibition (antiviral concentration)” value is 300 µg/mL. Moreover, the “FIC of the single agent within the combination” value in data set [1] is 0.10 and 0.07.
